The text below walks through data of ChEMBL document CHEMBL1201862, “PubChem BioAssay data set” (2004).

Test systems include HOP-18; LOX IMVI; A498; A549; HOP-62; OVCAR-4; NCI-H522; OVCAR-5; CCRF-CEM; DMS-273; DLD-1; NCI/ADR-RES; MCF7; M19-MEL; UACC-257; SNB-78; Hs-578T; T47D; PC-3; BT-549.
Test in all cases: inhibition of tumour cell growth, NCI panel, 48 h

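Compound exposure: 48 hours, 5 concentrations, 96-well plates. Here, GI50 denotes the concentration required for 50% inhibition of growth.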 The source made the active and inactive calls. Cut-off read from the data, not from the text of the source: active = GI50 up to about 1.1 µM and inactive = higher.

In the case of `CC(=O)C1CC(C)=CCC12C(=O)Nc1ccccc12` (stereo unspecified), the GI50 in the assay on HOP-18, in the assay with LOX IMVI, in the assay on A498, with A549, in the assay with HOP-62 and in the assay on OVCAR-4 was > 100 µM (inactive) each time. For the same molecule, the GI50 with NCI-H522, in the assay on OVCAR-5, in the assay on CCRF-CEM, with DMS-273 and with DLD-1 was > 100 µM (inactive) in each case.
Take `CCCNC(=O)C(C)C1CCC2(C)C=CC(=O)C(C)=C2C1O` (stereo unspecified): the GI50 in the assay on HOP-18, with LOX IMVI, in the assay on NCI/ADR-RES, in the assay on A498, in the assay with A549 and in the assay on HOP-62 was > 100 µM (inactive) each time. In addition, the GI50 in the assay on OVCAR-4, with NCI-H522, in the assay on OVCAR-5, with MCF7, in the assay on CCRF-CEM and in the assay with DMS-273 was > 100 µM (inactive) in each case. Also, the GI50 in the assay with M19-MEL, in the assay on UACC-257 and in the assay with DLD-1 was > 100 µM (inactive) each time.
Consider `NCCCCNCCCNC(=O)c1nc(-c2nc(CCN)sc2Cl)sc1Cl`, for which the GI50 was > 100 µM (inactive) with A498; 44.5 µM (inactive) with A549; 59.7 µM (inactive) in the assay with HOP-62; 29.9 µM (inactive) with OVCAR-4; 21 µM (inactive) in the assay on NCI-H522; > 100 µM (inactive) in the assay on OVCAR-5. The GI50 in the assay on CCRF-CEM was 89.5 µM (inactive); in the assay on DMS-273, 50.4 µM (inactive); in the assay on M19-MEL, > 100 µM (inactive); in the assay with UACC-257, > 100 µM (inactive); in the assay on DLD-1, 83 µM (inactive); in the assay with SNB-78, > 100 µM (inactive).
Take `CC(=O)Nc1cccc2[nH]c3ccccc3c(=O)c12`: the GI50 in the assay with HOP-18 was 6.82 µM (inactive); in the assay on A498, 14.9 µM (inactive); in the assay with A549, 21.6 µM (inactive); in the assay with OVCAR-4, 22.8 µM (inactive); in the assay with NCI-H522 it was 10.3 µM (inactive); with OVCAR-5, 20.6 µM (inactive). The GI50 in the assay on CCRF-CEM was 21.5 µM (inactive); in the assay on DMS-273, 32.2 µM (inactive); in the assay on M19-MEL, 21.8 µM (inactive); in the assay on UACC-257, 25.2 µM (inactive); in the assay with DLD-1, 15.3 µM (inactive).
Consider `CC12CCC3C(CCC4=CC(O)CCC43C=O)C1(O)CCC2c1ccc(=O)oc1` (stereo unspecified), for which the GI50 with HOP-18 is 0.0107 µM (active); in the assay on LOX IMVI, 0.00748 µM (active); with NCI/ADR-RES, 0.0253 µM (active); in the assay with A498, 0.00802 µM (active); with HOP-62, 0.05 µM (active); in the assay on OVCAR-4, 0.00723 µM (active). The GI50 was 0.0015 µM (active) with NCI-H522; 0.0693 µM (active) with OVCAR-5; 0.05 µM (active) in the assay on MCF7; 0.00497 µM (active) with DMS-273; 0.0128 µM (active) in the assay on M19-MEL; 0.0139 µM (active) with UACC-257. The GI50 in the assay with SNB-78 is 0.0075 µM (active).
For `CC1=N/C(=C/c2ccc3c(c2)OCO3)C(=O)O1`, the GI50 with HOP-18, in the assay with LOX IMVI, with A498, in the assay on A549, in the assay on OVCAR-4 and in the assay with NCI-H522 was > 100 µM (inactive) each time. The GI50 in the assay on OVCAR-5, in the assay with CCRF-CEM, in the assay with DMS-273, in the assay on M19-MEL, in the assay on UACC-257 and with SNB-78 was > 100 µM (inactive) in each case.
For `CC(=O)NC(CCCNC(=O)N(C)N=O)C(=O)NCc1ccccc1` (stereo unspecified), the GI50 in the assay on LOX IMVI, in the assay on A498, with A549, in the assay on HOP-62, in the assay on OVCAR-4 and in the assay with NCI-H522 was > 100 µM (inactive) in each case. The GI50 in the assay with OVCAR-5, in the assay on CCRF-CEM, in the assay on DMS-273, in the assay with M19-MEL, with UACC-257 and in the assay on DLD-1 was > 100 µM (inactive) throughout. Moreover, in the assay with SNB-78, the GI50 is > 100 µM (inactive).
For the molecule `COc1ccc2oc(-c3cccnc3)cc(=O)c2c1`, the GI50 in the assay with LOX IMVI was 47.5 µM (inactive); in the assay with A498, 61.2 µM (inactive); in the assay with HOP-62, 84.7 µM (inactive); with OVCAR-4 it was > 100 µM (inactive); with OVCAR-5, > 10 µM (inactive); in the assay on CCRF-CEM, 49.9 µM (inactive). Also, the GI50 is 52 µM (inactive) in the assay on DMS-273, > 100 µM (inactive) in the assay on M19-MEL, > 100 µM (inactive) in the assay with UACC-257 and > 100 µM (inactive) with DLD-1.
Take `COc1ccc(/C=c2/s/c(=C(\C#N)c3nc4ccccc4[nH]3)n(-c3ccccc3)c2=O)cc1`: the GI50 was 25 µM (inactive) with HOP-18; 36.9 µM (inactive) with LOX IMVI; 5.06 µM (inactive) in the assay on NCI/ADR-RES; 24.8 µM (inactive) in the assay with A498; 51.2 µM (inactive) in the assay on A549; 17.1 µM (inactive) with HOP-62. In addition, the GI50 in the assay on OVCAR-4 was 6.92 µM (inactive); in the assay with NCI-H522, > 60.3 µM (inactive); in the assay with Hs-578T, 4.45 µM (inactive); in the assay on T47D it was > 100 µM (inactive); with PC-3 it was 24 µM (inactive); in the assay with OVCAR-5 it was > 100 µM (inactive). Also, the GI50 was 45.1 µM (inactive) with MCF7; > 100 µM (inactive) in the assay on CCRF-CEM; 36.8 µM (inactive) in the assay with DMS-273; > 100 µM (inactive) in the assay on M19-MEL; > 100 µM (inactive) in the assay on UACC-257; > 100 µM (inactive) in the assay with DLD-1. Further, the GI50 in the assay on BT-549 was 21 µM (inactive).
On to `Cc1ccc2oc(=O)c(-c3ccccc3)nc2c1`, for which the GI50 is 34.2 µM (inactive) with HOP-18; 20.2 µM (inactive) in the assay with LOX IMVI; 26 µM (inactive) with A549; 36.7 µM (inactive) in the assay on HOP-62; 23.8 µM (inactive) in the assay on OVCAR-4; 15.3 µM (inactive) in the assay with NCI-H522. Besides, the GI50 in the assay with OVCAR-5 was 39.4 µM (inactive); in the assay on CCRF-CEM it was 18.5 µM (inactive); in the assay on DMS-273, 17.6 µM (inactive); in the assay with M19-MEL it was 23.1 µM (inactive); with UACC-257, 37.5 µM (inactive); with DLD-1, 11.7 µM (inactive).
For the molecule `CCC(C)C(=O)c1c(O)c(C/C=C(\C)CCC=C(C)C)c(O)c2c(C(O)CC)cc(=O)oc12` (stereo unspecified), the GI50 with LOX IMVI was 2.74 µM (inactive); with A498, 2.05 µM (inactive); in the assay with A549, 2.72 µM (inactive); in the assay on HOP-62, 1.95 µM (inactive); in the assay with OVCAR-4, 2.11 µM (inactive); in the assay on NCI-H522, 0.871 µM (active). Also, the GI50 was 5.28 µM (inactive) with OVCAR-5; 0.693 µM (active) in the assay on CCRF-CEM; 1.58 µM (inactive) with DMS-273; 2.28 µM (inactive) with M19-MEL; 2.21 µM (inactive) with UACC-257; 1.55 µM (inactive) in the assay with DLD-1. Moreover, the GI50 with SNB-78 was 3.89 µM (inactive).
`CCC(Sc1cc(Cl)c(C)cc1S(=O)(=O)Nc1nc(N)nc(N(C)C)n1)C(=O)O` (stereo unspecified): the GI50 in the assay with LOX IMVI, with NCI/ADR-RES, with A498, with A549, in the assay with HOP-62 and in the assay on OVCAR-4 was > 10 µM (inactive) each time. Moreover, the GI50 with NCI-H522, in the assay with Hs-578T, in the assay on T47D, with PC-3, with OVCAR-5 and in the assay with MCF7 was > 10 µM (inactive) throughout. The GI50 in the assay with CCRF-CEM, with UACC-257 and with BT-549 was > 10 µM (inactive) throughout.
Regarding `C=C(Cl)C(Br)(CCl)CCC(Br)C(C)(C)Cl` (stereo unspecified), the GI50 in the assay on LOX IMVI is 1.25 µM (inactive); in the assay on NCI/ADR-RES, 3.17 µM (inactive); in the assay on A498, 17.7 µM (inactive); in the assay on A549, 17.7 µM (inactive); in the assay with HOP-62, 2.76 µM (inactive); with OVCAR-4, 8.83 µM (inactive). For the same molecule, the GI50 in the assay on NCI-H522 is 3.42 µM (inactive); in the assay with Hs-578T, 3.66 µM (inactive); with T47D it was 1.15 µM (inactive); in the assay with PC-3, 6.12 µM (inactive); in the assay with OVCAR-5, 7.21 µM (inactive); with MCF7 it was 3.38 µM (inactive). Further, the GI50 is 0.92 µM (active) in the assay with CCRF-CEM, 2.67 µM (inactive) in the assay on UACC-257 and 2.52 µM (inactive) in the assay with BT-549.
`CCOC(=O)C(SCCO)C(C(=O)OCC)n1ccc(=O)[nH]c1=O` (stereo unspecified): the GI50 with LOX IMVI was 14.8 µM (inactive); in the assay with NCI/ADR-RES, 25.4 µM (inactive); in the assay with A498, 75 µM (inactive); in the assay with A549, > 100 µM (inactive); with HOP-62 it was > 60.7 µM (inactive); with OVCAR-4, > 49.3 µM (inactive). Also, the GI50 in the assay with NCI-H522 is 3.77 µM (inactive); in the assay with Hs-578T, 36.6 µM (inactive); in the assay with T47D, 38.1 µM (inactive); in the assay with PC-3, > 64 µM (inactive); with OVCAR-5 it was 22.1 µM (inactive); in the assay on MCF7, 23.1 µM (inactive). The GI50 with CCRF-CEM is 1.98 µM (inactive); in the assay with UACC-257, > 63.7 µM (inactive); with BT-549 it was > 58.7 µM (inactive).
In the case of `O=C(NS(=O)(=O)OCC(Cl)(Cl)Cl)SCCC(F)(F)C(F)(F)C(F)(F)C(F)(F)C(F)(F)C(F)(F)F`, the GI50 was 22.5 µM (inactive) in the assay on LOX IMVI; 20.2 µM (inactive) with NCI/ADR-RES; 31 µM (inactive) in the assay on A498; 30.2 µM (inactive) in the assay with A549; 28.2 µM (inactive) in the assay on HOP-62; 16.4 µM (inactive) in the assay with OVCAR-4. Besides, the GI50 was 20 µM (inactive) with NCI-H522; 19 µM (inactive) in the assay on Hs-578T; 27.9 µM (inactive) in the assay with T47D; 16.5 µM (inactive) with PC-3; 18.6 µM (inactive) with OVCAR-5; 20 µM (inactive) with MCF7. The values for the GI50 in the assay on CCRF-CEM, in the assay with UACC-257 and in the assay with BT-549 were 22.8 µM (inactive), 35.5 µM (inactive) and 49 µM (inactive), respectively.
